Experimental findings from US10981932B2, “Macrocyclic indole derivatives” (Bayer Aktiengesellschaft, priority 2016, dated 2021) are described below.

The target of one data set is MCL-1 (Homo sapiens, UniProt Q07820). In words: Protein-protein interaction assay MCL-1/Noxa BH3 peptide (MCL-1 assay), TR-FRET. Type of data set: binding. The following applies: MBP-MCL-1 / Noxa BH3-derived peptide, median. The procedure, abridged:
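Steady-state competition, MCL-1/Noxa BH3, TR-FRET readout; 1 nM MBP-MCL-1, 11-point dose series 0.1 nM–20 μM; overnight 4 °C equilibration; 4-parameter IC50.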

The next data set has as its system A2780. In words: Anti-proliferative effect (CellTiter-Glo, 72 h), A2780. Conditions: A2780 cells, median, read-out: IC50 antiproliferation assay A2780 [M] (median). The class given is cell-based. The procedure, abridged:
(§1)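 Endpoint: CellTiter-Glo luminescence, 10 min after reagent addition. Treatment ran 72 h at 37 °C, humidified. Growth was referenced to a separately plated day 0 plate.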
A general note: In ATP-based viability assays light output follows the ATP content of the culture.

In data set [1] the test system is SUDHL5. In words: Induction of caspase-3/7 activity (Caspase-Glo 3/7), SUDHL5. Type of data set: cell-based. Conditions: caspase-3/7 induction, SUDHL5 cells, 3 h treatment, median. The procedure, abridged:
(§2)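 A 3 h, 37 °C compound incubation precedes the Caspase-Glo 3/7 read. After subtracting medium-only signal, EC50s are fitted against the reference compound's maximal caspase induction.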

Data set [2] has as its system SUDHL5. In words: Anti-proliferative effect (CellTiter-Glo, 72 h), SUDHL5. Type of data set: cell-based. Conditions: SUDHL5 cells, antiproliferation, 72 h incubation, median, read-out: Antiproli SUDHL5 [M] (median). The procedure, abridged: as §1
A further data set has as its system MV-4-11. As to the kind of experiment: Anti-proliferative effect (CellTiter-Glo, 72 h), MV-4-11. Type of data set: cell-based. The following applies: Homo sapiens, MV4-11, 72 h, MV-4-11 cells, median, read-out: IC50 antiproliferation assay MV-4-11 [M] (median). The gist of the method:
as §1

For data set [3], the system named is SUDHL10. In words: Induction of caspase-3/7 activity (Caspase-Glo 3/7), SUDHL10. The class given is cell-based. Conditions: caspase-3/7 induction, SUDHL10 cells, 3 h treatment, median. The gist of the method: as §2
Data set [4] deals with SUDHL10. In words: Anti-proliferative effect (CellTiter-Glo, 72 h), SUDHL10. The class given is cell-based. The following applies: SUDHL10 cells, antiproliferation, 72 h incubation, median, read-out: Antiproli SUDHL10 [M] (median). The procedure, abridged: as §1
Data set [5] concerns SUDHL10. As to the kind of experiment: Induction of cytotoxicity (CellTiter-Glo, 5 h), SUDHL10.
Data set [6] has as its system SUDHL5. As to the kind of experiment: Induction of cytotoxicity (CellTiter-Glo, 5 h), SUDHL5.
Setting [7] is: read-out: Cytotox SUDHL10 [M] (median), SUDHL10 cells, cytotoxicity induction, CellTiter-Glo, 5 h incubation, median.
Setting [8] is: read-out: Cytotox SUDHL5 [M] (median), SUDHL5 cells, cytotoxicity induction, CellTiter-Glo, 5 h incubation, median.
The mark [9] stands for this setting: Homo sapiens, SU-DHL10, 5 h, read-out: Cytotox SUDHL10 [M] (median), SUDHL10 cells, cytotoxicity induction, CellTiter-Glo, 5 h incubation, median.

Where a name gives a salt, the structure may show the parent alone. Read-outs that look alike come from different tables or passages of the source.

Sequence of MCL-1 (Q07820 whole entry): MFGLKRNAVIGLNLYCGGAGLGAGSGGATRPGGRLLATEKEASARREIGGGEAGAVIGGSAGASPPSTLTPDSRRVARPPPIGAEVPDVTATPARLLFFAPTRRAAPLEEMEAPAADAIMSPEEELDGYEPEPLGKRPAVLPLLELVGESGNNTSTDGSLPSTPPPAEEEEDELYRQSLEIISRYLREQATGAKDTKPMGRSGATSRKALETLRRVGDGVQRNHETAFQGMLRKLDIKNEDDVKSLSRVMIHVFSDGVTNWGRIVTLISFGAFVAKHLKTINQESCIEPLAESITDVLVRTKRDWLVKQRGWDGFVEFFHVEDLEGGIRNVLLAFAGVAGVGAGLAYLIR

By EC50 is commonly meant the concentration at which the effect is half-maximal. A low value points to a more potent agent. As for `Cc1nn(C)c2c1-c1cccc3c(CCCOc4cccc5c4CCCC5)c(C(=O)O)n(c13)CCCCOC2` (single isomer, unassigned; enantiomer 1) [Example 007, 1,3-dimethyl-7-[3-(5,6,7,8-tetrahydronaphthalen-1-yloxy)propyl]-1,10,11,12,13,15-hexahydropyrazolo[4′,3′:9,10][1,6]oxazacycloundecino[8,7,6-hi]indole-8-carboxylic acid-N-ethylethanamine Salt (Enantiomer 1)], the IC50 is 0.000987 µM against MCL-1; 3.25e-05 M in the data set with A2780; greater than 3.3e-05 M in the data set with A2780 (Homo sapiens, A2780, 72 h); 5.16e-06 M in the data set on SUDHL5 [2]; 8.03e-06 M in the data set with MV-4-11; 3.1e-06 M in the data set with SUDHL10 [4]. The IC50 was 6e-06 M in the data set with SUDHL10 [5] (setting [7]) and 3.54e-06 M with SUDHL5 [6] (setting [8]). Besides, the EC50 in the data set with SUDHL5 [1] came to 2.85 µM; in the data set on SUDHL10 [3] it was 12 µM.
Turning to `Cc1nn(C)c2c1-c1cccc3c(CCCOc4cccc5ccccc45)c(C(=O)O)n(c13)CCCOC2` (single isomer, unassigned; enantiomer 1) [Example 044, 9,11-dimethyl-1-[3-(naphthalen-1-yloxy)propyl]-5,6,8,9-tetrahydro-4H-pyrazolo[4′,3′:8,9][1,5]oxazecino[7,6,5-h]indole-2-carboxylic acid-N-ethylethanamine Salt (Enantiomer 1)], the IC50 at MCL-1 was 0.00357 µM; in the data set on A2780 (Homo sapiens, A2780, 72 h) it was greater than 3.3e-05 M; in the data set on SUDHL5 [2] (Homo sapiens, SU-DHL-5, 72 h), 7.61e-06 M; with MV-4-11, 4.1e-06 M; in the data set with SUDHL10 [4] (Homo sapiens, SU-DHL10, 72 h), 1.1e-05 M; in the data set on SUDHL10 [5] (setting [9]) it was 2.34e-05 M. Besides, the IC50 in the data set with SUDHL5 [6] (setting [8]) was determined as 6.01e-06 M. Moreover, the EC50 in the data set on SUDHL5 [1] turned out to be 6.63 µM; in the data set with SUDHL10 [3] (Homo sapiens, SU-DHL10, 3 h), 25.3 µM.
Consider `Cc1nn(CCN2CCOCC2)c2c1-c1cccc3c(CCCOc4cccc5ccccc45)c(C(=O)O)n(c13)CCCCOC2` (single isomer, unassigned; enantiomer 1) [Example 096, 3-methyl-1-[2-(morpholin-4-yl)ethyl]-7-[3-(naphthalen-1-yloxy)propyl]-1,10,11,1213,15-hexahydropyrazolo[4′,3′:9,10][1,6]oxazacycloundecino[8,7,6-hi]indole-8-carboxylic acid-N-ethylethanamine Salt (Enantiomer 1)], for which the IC50 at MCL-1 was 0.00136 µM; in the data set on A2780 (Homo sapiens, A2780, 72 h), 2.79e-05 M; in the data set on SUDHL5 [2], 2.32e-06 M; with MV-4-11, 1.45e-06 M; with SUDHL10 [4] (Homo sapiens, SU-DHL10, 72 h), 7.13e-06 M; in the data set on SUDHL10 [5] (setting [7]) it was 3.7e-06 M. The IC50 in the data set with SUDHL5 [6] (setting [8]) was determined as 1.09e-06 M. Moreover, the concentration for a half-maximal effect (EC50) in the data set on SUDHL5 [1] was 1.34 µM; with SUDHL10 [3], 3.97 µM.
On to `Cc1nn(CC(F)(F)F)c2c1-c1cccc3c(CCCOc4cccc5ccccc45)c(C(=O)O)n(c13)CCCCOC2` (single isomer, unassigned; enantiomer 1) [Example 110, 3-methyl-7-[3-(naphthalen-1-yloxy)propyl]-1-(2,2,2-trifluoroethyl)-1,10,11,12,13,15-hexahydropyrazolo[4′,3′:9,10][1,6]oxazacycloundecino[8,7,6-hi]indole-8-carboxylic acid-N-ethylethanamine Salt (Enantiomer 1)], for which the IC50 against MCL-1 was 0.0124 µM; in the data set on A2780 (Homo sapiens, A2780, 72 h), greater than 3.3e-05 M; in the data set with SUDHL5 [2] it was 1.24e-05 M; with MV-4-11 it was 1.33e-05 M; in the data set on SUDHL10 [4], 1.72e-05 M; in the data set on SUDHL10 [5] (setting [9]), 2.37e-05 M. Moreover, in the data set with SUDHL5 [6] (setting [8]), the IC50 was 6.54e-06 M. For the same compound, the EC50 amounted to 8.06 µM with SUDHL5 [1] and 26 µM with SUDHL10 [3] (Homo sapiens, SU-DHL10, 3 h).
As to `Cn1nc(CN2CCOCC2)c2c1COCC=CCn1c(C(=O)O)c(CCCOc3cccc4ccccc34)c3cccc-2c31` (single isomer, unassigned; enantiomer 1) [Example 133, (E/Z)-1-methyl-3-(morpholin-4-ylmethyl)-7-[3-(naphthalen-1-yloxy)propyl]-1,10,13,15-tetrahydropyrazolo[4′,3′:9,10][1,6]oxazacycloundecino[8,7,6-hi]indole-8-carboxylic acid-N-ethylethanamine Salt (Enantiomer 1)], the IC50 was found to be 0.0186 µM on MCL-1; 1.51e-05 M in the data set with A2780 (Homo sapiens, A2780, 72 h); 1.62e-05 M in the data set with SUDHL5 [2] (Homo sapiens, SU-DHL-5, 72 h); 6.84e-06 M in the data set with MV-4-11; 4.25e-06 M in the data set with SUDHL10 [4]; 2.95e-05 M in the data set with SUDHL10 [5] (setting [9]). For the same compound, the IC50 in the data set on SUDHL5 [6] (Homo sapiens, SU-DHL-5, 5 h, read-out: Cytotox SUDHL5 [M] (median), SUDHL5 cells, cytotoxicity induction, CellTiter-Glo, 5 h incubation, median) amounted to 1.84e-05 M. Further, the concentration for a half-maximal effect (EC50) in the data set on SUDHL5 [1] (Homo sapiens, SU-DHL-5, 3 h) worked out at 17.6 µM; with SUDHL10 [3] (Homo sapiens, SU-DHL10, 3 h), 32.8 µM.
With `Cn1nc(CN2CC(F)(F)C2)c2c1COCCCCn1c(C(=O)O)c(CCCOc3cccc4ccccc34)c3cccc-2c31` (single isomer, unassigned; enantiomer 1) [Example 181, 3-[(3,3-difluoroazetidin-1-yl)methyl]-1-methyl-7-[3-(naphthalen-1-yloxy)propyl]-1,10,11,12,13,15-hexahydropyrazolo[4′,3′:9,10][1,6]oxazacycloundecino[8,7,6-hi]indole-8-carboxylic acid-N-ethylethanamine Salt (Enantiomer 1)], the IC50 against MCL-1 was determined as 0.00777 µM; in the data set with A2780 (Homo sapiens, A2780, 72 h) it was 2.46e-05 M; in the data set on SUDHL5 [2] it was 6.23e-06 M; in the data set with MV-4-11, 1.8e-05 M; with SUDHL10 [4] (Homo sapiens, SU-DHL10, 72 h) it was 8.23e-06 M; in the data set with SUDHL10 [5] (setting [9]) it was 1.67e-05 M. Also, the IC50 in the data set with SUDHL5 [6] (setting [8]) stood at 6.68e-06 M. Also, the half-maximal effective concentration (EC50) in the data set with SUDHL5 [1] stood at 5.11 µM; with SUDHL10 [3] it was 16.1 µM.
In the case of `COCc1nn(C)c2c1-c1cccc3c(CCCOc4cccc5ccccc45)c(C(=O)O)n(c13)CCCCN(C)C2` (single isomer, unassigned; enantiomer 1) [Example 184, 3-(methoxymethyl)-1,14-dimethyl-7-[3-(naphthalen-1-yloxy)propyl]-10,11,12,13,14,15-hexahydro-1H-pyrazolo[3′,4′:8,9][1,6]diazacycloundecino[10,11,1-hi]indole-8-carboxylic acid-N-ethylethanamine Salt (Enantiomer 1)], the IC50 on MCL-1 was 0.0016 µM; with A2780 (Homo sapiens, A2780, 72 h) it was greater than 3.3e-05 M; in the data set with SUDHL5 [2], 1.34e-06 M; in the data set on MV-4-11 it was 1.52e-06 M; with SUDHL10 [4] it was 1.2e-06 M; in the data set on SUDHL10 [5] (setting [7]), 2.94e-06 M. Also, the IC50 in the data set with SUDHL5 [6] (setting [8]) was 8.82e-07 M. Further, the results for the half-maximal effective concentration (EC50) with SUDHL5 [1] and in the data set on SUDHL10 [3] were 0.803 µM and 2.9 µM, respectively.
In the case of `Cc1c2c(nn1C)CCCCCCn1c(C(=O)O)c(CCCOc3cccc4ccccc34)c3cccc-2c31` (single isomer, unassigned; enantiomer 1) [Example 191, 2,3-dimethyl-7-[3-(1-naphthyloxy)propyl]-10,11,12,13,14,15-hexahydro-2H-pyrazolo[4′,3′:4,5]azacycloundecino[3,2,1-hi]indole-8-carboxylic acid-N-ethylethanamine Salt (Enantiomer 1)], the IC50 was determined as 0.00273 µM on MCL-1; 2.55e-05 M with A2780 (Homo sapiens, A2780, 72 h); 3.23e-06 M with SUDHL5 [2]; 2.58e-06 M in the data set on MV-4-11; 4.64e-06 M in the data set on SUDHL10 [4] (Homo sapiens, SU-DHL10, 72 h); 5.01e-06 M in the data set on SUDHL10 [5] (setting [7]). Besides, the IC50 in the data set on SUDHL5 [6] (setting [8]) was found to be 1.87e-06 M. Moreover, the results for the EC50 in the data set with SUDHL5 [1] and with SUDHL10 [3] were 2.09 µM and 7.16 µM, respectively.
As to `CCCc1nn(C)c2c1-c1c(C)ccc3c(CCCOc4cccc5ccccc45)c(C(=O)O)n(c13)CCCN(C)C2` (single isomer, unassigned; enantiomer 1) [Example 196, 7,9,12-trimethyl-1-[3-(naphthalen-1-yloxy)propyl]-11-propyl-4,5,6,7,8,9-hexahydropyrazolo[3′,4′:7,8][1,5]diazecino[9,10,1-hi]indole-2-carboxylic acid-N-ethylethanamine Salt (Enantiomer 1)], the IC50 on MCL-1 worked out at 0.00161 µM; in the data set on A2780 (Homo sapiens, A2780, 72 h), 1.53e-05 M; with SUDHL5 [2], 1.45e-06 M; in the data set on MV-4-11, 4.83e-06 M; with SUDHL10 [4] it was 2.19e-06 M; in the data set on SUDHL10 [5] (setting [7]), 2.92e-06 M. Further, in the data set with SUDHL5 [6] (setting [8]), the IC50 was 1.36e-06 M. Further, the values for the EC50 in the data set with SUDHL5 [1] and with SUDHL10 [3] were 1.39 µM and 2.85 µM, respectively.
